Measured values reported in the supplement of paper PMC10307832.

How the values were obtained:
Experiment in all cases: relative viability (nuclei count vs DMSO), 5 days (fraction); higher = more cells survive
PAC-1 + Palbociclib = compound: C=CCc1cccc(/C=N/NC(=O)CN2CCN(Cc3ccccc3)CC2)c1O [PAC-1] + CC(=O)c1c(C)c2cnc(Nc3ccc(N4CCNCC4)cn3)nc2n(C2CCCC2)c1=O [Palbociclib] (partner 0.5 µM)
Outline: (§1)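 One day after seeding in 1536-well plates, lung cancer cell lines were dosed by pin tool. Dosing was either single-drug or a fixed anchor-drug dose plus five library-drug doses (not always all listed) in √10 steps. After 5 days, nuclei were stained in one fix-and-stain step and counted on 4× images, and relative viability is the nuclei count of treated wells over that of vehicle wells, given as the median of duplicate plates.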

PAC-1 + Pemetrexed = compound: C=CCc1cccc(/C=N/NC(=O)CN2CCN(Cc3ccccc3)CC2)c1O [PAC-1] + Nc1nc2[nH]cc(CCc3ccc(C(=O)N[C@@H](CCC(=O)O)C(=O)O)cc3)c2c(=O)[nH]1 [Pemetrexed] (partner 0.2 µM)
Outline: as §1

PAC-1 + Crizotinib = compound: C=CCc1cccc(/C=N/NC(=O)CN2CCN(Cc3ccccc3)CC2)c1O [PAC-1] + C[C@@H](Oc1cc(-c2cnn(C3CCNCC3)c2)cnc1N)c1c(Cl)ccc(F)c1Cl [Crizotinib] (partner 1 µM)
Outline: as §1

PAC-1 + Luminespib = compound: C=CCc1cccc(/C=N/NC(=O)CN2CCN(Cc3ccccc3)CC2)c1O [PAC-1] + CCNC(=O)c1noc(-c2cc(C(C)C)c(O)cc2O)c1-c1ccc(CN2CCOCC2)cc1 [Luminespib] (partner 0.01 µM)
Outline: as §1

BMX-IN-1 + Crizotinib = compound: C=CC(=O)Nc1cc(-n2c(=O)ccc3cnc4ccc(-c5ccc(NS(C)(=O)=O)cc5)cc4c32)ccc1C [BMX-IN-1] + C[C@@H](Oc1cc(-c2cnn(C3CCNCC3)c2)cnc1N)c1c(Cl)ccc(F)c1Cl [Crizotinib] (partner 1 µM)
Outline: as §1

Cell Line | relative viability (PAC-1 + Palbociclib; first compound 0.02 µM) | relative viability (PAC-1 + Palbociclib; first compound 0.06325 µM) | relative viability (PAC-1 + Palbociclib; first compound 2 µM) | relative viability (PAC-1 + Pemetrexed; first compound 0.02 µM) | relative viability (PAC-1 + Pemetrexed; first compound 0.06325 µM) | relative viability (PAC-1 + Pemetrexed; first compound 2 µM) | relative viability (PAC-1 + Crizotinib; first compound 0.06325 µM) | relative viability (PAC-1 + Crizotinib; first compound 0.2 µM) | relative viability (PAC-1 + Crizotinib; first compound 2 µM) | relative viability (PAC-1 + Luminespib; first compound 0.02 µM) | relative viability (PAC-1 + Luminespib; first compound 0.06325 µM) | relative viability (PAC-1 + Luminespib; first compound 0.2 µM) | relative viability (PAC-1 + Luminespib; first compound 2 µM) | relative viability (BMX-IN-1 + Crizotinib; first compound 0.02 µM) | relative viability (BMX-IN-1 + Crizotinib; first compound 0.2 µM) | relative viability (BMX-IN-1 + Crizotinib; first compound 0.6325 µM) | relative viability (BMX-IN-1 + Crizotinib; first compound 2 µM) | relative viability (PAC-1 + Palbociclib; first compound 0.2 µM) | relative viability (PAC-1 + Pemetrexed; first compound 0.2 µM) | relative viability (PAC-1 + Crizotinib; first compound 0.02 µM)
LCLC-97TM1 | 0.211 | 0.274 | 0.225 | 0.184 | 0.177 | 0.191 | 0.252 | 0.358 | 0.298 | 0.74 | 0.916 | 0.621 | 0.868 | 0.343 | 0.429 | 0.363 | 0.387 | – | – | –
NCI-H2023 | 0.343 | 0.353 | 0.33 | 0.211 | 0.215 | 0.229 | 0.635 | 0.534 | 0.586 | 0.741 | 0.703 | 0.667 | 0.444 | 0.865 | 0.639 | 0.753 | 0.676 | 0.355 | 0.244 | 0.629
LC-2-ad | 0.513 | 0.439 | 0.496 | 0.26 | 0.296 | 0.27 | 0.436 | 0.443 | 0.398 | 1.06 | 1.02 | 0.971 | 0.963 | 0.374 | 0.518 | 0.484 | 0.494 | 0.492 | 0.265 | 0.383
NCI-H1975 | 0.629 | 0.605 | 0.725 | 0.295 | 0.279 | 0.289 | 0.916 | 0.944 | 1 | 0.242 | 0.188 | 0.253 | 0.167 | 1.31 | 1.02 | 1.11 | 0.86 | 0.52 | 0.306 | 0.919
NCI-H2347 | 0.499 | 0.435 | 0.414 | 0.412 | 0.435 | 0.46 | 0.715 | 0.748 | 0.826 | 0.302 | 0.427 | 0.536 | 0.583 | 0.735 | 0.678 | 0.675 | 0.624 | 0.477 | 0.41 | 0.82
NCI-H2405 | 0.53 | 0.502 | 0.509 | 1.08 | 1.06 | 1.02 | 0.829 | 0.818 | 0.862 | 0.611 | 0.652 | 0.656 | 0.789 | 0.939 | 0.892 | 0.903 | 0.886 | 0.502 | 1.06 | 0.862
HCC-44 | 1.04 | 0.984 | 0.993 | 0.649 | 0.615 | 0.684 | 0.797 | 0.807 | 0.772 | 1.04 | 1.14 | 1.01 | 0.964 | 0.907 | 0.834 | 0.944 | 0.889 | 0.965 | 0.588 | 0.809
NCI-H1666 | 0.605 | 0.643 | 0.632 | 0.643 | 0.889 | 0.799 | 0.897 | 1.05 | 1 | 0.981 | 1.08 | 1.08 | 0.864 | 1.08 | 0.98 | 1.05 | 0.906 | 0.676 | 0.849 | 0.981
NCI-H650 | 0.317 | 0.296 | 0.342 | 0.893 | 0.931 | 1.03 | 0.653 | 0.825 | 0.72 | 0.701 | 0.929 | 0.882 | 0.748 | 0.881 | 0.863 | 0.707 | 0.774 | 0.39 | 0.968 | 0.591
EPLC-272H | 0.279 | 0.28 | 0.268 | 0.355 | 0.32 | 0.348 | 0.95 | 0.789 | 0.818 | 0.296 | 0.262 | 0.202 | 0.277 | 1.04 | 0.968 | 0.96 | 0.96 | 0.293 | 0.341 | –
LXF-289 | 0.605 | 0.599 | 0.597 | 0.857 | 0.859 | 0.916 | 0.807 | 0.789 | 0.835 | 0.683 | 0.731 | 0.758 | 0.756 | 0.876 | 0.907 | 0.842 | 0.815 | 0.597 | 0.873 | 0.833
LOU-NH91 | 0.573 | 0.539 | 0.515 | 0.368 | 0.365 | 0.39 | 0.762 | 0.723 | 0.728 | 0.312 | 0.271 | 0.352 | 0.322 | – | 0.764 | 0.752 | 0.731 | 0.526 | 0.379 | 0.747
LCLC-103H | 0.482 | 0.489 | 0.438 | 0.468 | 0.419 | 0.451 | 1.15 | 0.974 | 1.02 | 1.06 | 0.932 | 0.981 | 0.911 | 1.19 | 1.05 | 1.07 | 1.07 | 0.503 | 0.436 | 1.07
NCI-H1944 | 0.272 | 0.347 | 0.371 | 0.595 | 0.65 | 0.627 | 1.16 | 1.02 | 1.14 | 0.766 | 0.685 | 0.765 | 0.701 | 1.21 | 1.28 | 1.21 | 1.07 | 0.374 | 0.623 | 1.06
NCI-H460 | 0.148 | 0.162 | 0.248 | 0.0683 | 0.0604 | 0.0667 | 0.805 | 0.823 | 1.07 | 0.035 | 0.0314 | 0.0281 | 0.0281 | 1.57 | 1.76 | 0.906 | 1.03 | 0.129 | 0.0685 | 0.887
